This note sets out measurements from ChEMBL document CHEMBL1148065, “Two new flavones from Calliandra californica” (1994).

One experiment relates to Staphylococcus aureus. Description: Antimicrobial activity against Staphylococcus aureus at 1 mg/disk. In kind it is functional.
Another experiment has as its system Bacillus subtilis. Description: Antimicrobial activity against Bacillus subtilis at 1 mg/disk. In kind it is functional.

Structures are written as SMILES. Active and inactive are the calls of the source. The rule behind the calls is not given here.

For `COc1ccc2c(=O)cc(-c3cc(OC)c(OC)cc3OC)oc2c1`, the result in the experiment with Staphylococcus aureus and in the experiment on Bacillus subtilis was inactive.
Consider `COc1cc(O)c2c(=O)cc(-c3cc(OC)c(OC)cc3OC)oc2c1`, for which the “inhibition zone (IZ)” value was 8 mm in the experiment on Staphylococcus aureus and 11 mm in the experiment with Bacillus subtilis.
